Patent publication US7875647B2, “Heteroaryl-pyrazole derivatives as cannabinoid CB1 receptor antagonists” (Green Cross Corporation, priority 2006, dated 2011)
pIC50: −log10 of the molar value.

Target: T1, Cannabinoid-1 receptor (CB1R) (Rattus norvegicus, UniProt P20272)
T1 construct: The tissue obtained from the brain of SD rats was homogenized; from tissue; host or cells: brain of SD rats (membrane pellet of the homogenate)
Experiment: Cannabinoid-1 receptor (CB1R) binding affinity assay ([3H]CP-55940, rat CB-1 receptor binding protocol)
Conditions: brain tissue of SD rats, [3H]CP-55940, 30° C. 60 min; read-out: IC50

T1 sequence (P20272 whole entry): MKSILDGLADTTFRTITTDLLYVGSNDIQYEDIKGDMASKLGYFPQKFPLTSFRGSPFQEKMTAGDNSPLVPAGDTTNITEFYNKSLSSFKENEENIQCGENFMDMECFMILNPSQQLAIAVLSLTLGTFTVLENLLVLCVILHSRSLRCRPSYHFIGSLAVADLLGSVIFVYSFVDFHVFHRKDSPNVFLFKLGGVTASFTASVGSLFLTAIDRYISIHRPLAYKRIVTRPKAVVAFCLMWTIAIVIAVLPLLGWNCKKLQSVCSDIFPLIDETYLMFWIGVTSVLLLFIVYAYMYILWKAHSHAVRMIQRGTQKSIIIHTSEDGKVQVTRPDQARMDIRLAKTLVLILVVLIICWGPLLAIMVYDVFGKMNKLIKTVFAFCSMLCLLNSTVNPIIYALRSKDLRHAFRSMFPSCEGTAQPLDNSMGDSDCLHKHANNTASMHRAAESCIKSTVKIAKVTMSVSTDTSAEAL

Compound	pIC50
C=C(C)c1c(-c2nnc(C(C)(C)C)s2)nn(-c2ccc(Cl)cc2Cl)c1-c1ccc(Br)cc1 [Example 535, 2-(5-(4-bromophenyl)-1-(2,4-dichlorophenyl)-4-(prop-1-en-2-yl)-1H-pyrazol-3-yl)-5-tert-butyl-1,3,4-thiadiazole]	7.92
Clc1ccc(-c2c(Cl)c(-c3nnc(C4CCC4)s3)nn2-c2ccc(Cl)cc2Cl)cc1 [Example 536, 2-(4-chloro-5-(4-chlorophenyl)-1-(2,4-dichlorophenyl)-1H-pyrazol-3-yl)-5-cyclobutyl-1,3,4-thiadiazole]	6.70
CCC(C)(C)c1nnc(-c2nn(-c3ccc(Cl)cc3Cl)c(-c3ccc(Cl)cc3)c2Cl)s1 [Example 537, 2-(4-chloro-5-(4-chlorophenyl)-1-(2,4-dichlorophenyl)-1H-pyrazol-3-yl)-5-tert-pentyl-1,3,4-thiadiazole]	6.90
Clc1ccc(-c2c(Cl)c(-c3nnc(C4CCCCC4)s3)nn2-c2ccc(Cl)cc2Cl)cc1 [Example 538, 2-(4-chloro-5-(4-chlorophenyl)-1-(2,4-dichlorophenyl)-1H-pyrazol-3-yl)-5-cyclohexyl-1,3,4-thiadiazole]	6.19
CCC(C)c1nnc(-c2nn(-c3ccc(Cl)cc3Cl)c(-c3ccc(Cl)cc3)c2Cl)s1 (centres unmarked) [Example 539, 2-sec-butyl-5-(4-chloro-5-(4-chlorophenyl)-1-(2,4-dichlorophenyl)-1H-pyrazol-3-yl)-1,3,4-thiadiazole]	6.99
CC(C)(C)c1nnc(-c2nn(-c3ccc(Cl)cc3Cl)c(-c3ccc(Cl)cc3)c2Cl)s1 [Example 540, 2-tert-butyl-5-(4-chloro-5-(4-chlorophenyl)-1-(2,4-dichlorophenyl)-1H-pyrazol-3-yl)-1,3,4-thiadiazole]	7.01
CC(C)(C)c1nnc(-c2nn(-c3ccc(Cl)cc3Cl)c(-c3ccc(Cl)cc3)c2Br)s1 [Example 541, 2-(4-bromo-5-(4-chlorophenyl)-1-(2,4-dichlorophenyl)-1H-pyrazol-3-yl)-5-tert-butyl-1,3,4-thiadiazole]	7.64
CCC(C)c1nnc(-c2nn(-c3ccc(Cl)cc3Cl)c(-c3ccc(Cl)cc3)c2Br)s1 (centres unmarked) [Example 542, 2-(4-bromo-5-(4-chlorophenyl)-1-(2,4-dichlorophenyl)-1H-pyrazol-3-yl)-5-sec-butyl-1,3,4-thiadiazole]	7.28
Clc1ccc(-c2c(Br)c(-c3nnc(C4CCC4)s3)nn2-c2ccc(Cl)cc2Cl)cc1 [Example 543, 2-(4-bromo-5-(4-chlorophenyl)-1-(2,4-dichlorophenyl)-1H-pyrazol-3-yl)-5-cyclobutyl-1,3,4-thiadiazole]	7.15
Clc1ccc(-c2c(Br)c(-c3nnc(C4CCCCC4)s3)nn2-c2ccc(Cl)cc2Cl)cc1 [Example 544, 2-(4-bromo-5-(4-chlorophenyl)-1-(2,4-dichlorophenyl)-1H-pyrazol-3-yl)-5-cyclohexyl-1,3,4-thiadiazole]	7.04
CCC(C)(C)c1nnc(-c2nn(-c3ccc(Cl)cc3Cl)c(-c3ccc(Cl)cc3)c2Br)s1 [Example 545, 2-(4-bromo-5-(4-chlorophenyl)-1-(2,4-dichlorophenyl)-1H-pyrazol-3-yl)-5-tert-pentyl-1,3,4-thiadiazole]	7.63
CC(C)(c1ccc(Cl)cc1)c1nnc(-c2nn(-c3ccc(Cl)cc3Cl)c(-c3ccc(Cl)cc3)c2Br)s1 [Example 546, 2-(4-bromo-5-(4-chlorophenyl)-1-(2,4-dichlorophenyl)-1H-pyrazol-3-yl)-5-(2-(4-chlorophenyl)propan-2-yl)-1,3,4-thiadiazole]	7.53
Clc1ccc(-c2c(Br)c(-c3nnc(C4(c5ccc(Cl)cc5)CC4)s3)nn2-c2ccc(Cl)cc2Cl)cc1 [Example 547, 2-(4-bromo-5-(4-chlorophenyl)-1-(2,4-dichlorophenyl)-1H-pyrazol-3-yl)-5-(1-(4-chlorophenyl)cyclopropyl)-1,3,4-thiadiazole]	7.89
CCCn1nnnc1-c1nn(-c2ccc(Cl)cc2Cl)c(-c2ccc(Cl)cc2)c1C [Example 565, 5-(5-(4-Chlorophenyl)-1-(2,4-dichlorophenyl)-4-methyl-1H-pyrazol-3-yl)-1-propyl-1H-tetrazole]	7.16
